We go through 1 compound from US20120213855A1, “DOSAGE FORMS FOR WEAKLY IONIZABLE COMPOUNDS” (CIMA LABS INC., priority 2011, published 2012).

Data set [1] in a line: In vitro dissolution in 900 mL DI water, USP type 2 apparatus (Example 3). Type of data set: physicochemical. The following applies: 37° C., 50 rpm, 15 mg meloxicam, when introduced to the dissolution medium. On the procedure:
Dissolution was performed in 900 mL of DI water. Dissolution studies were conducted in a USP type 2 apparatus (Varian Inc., Cary, N.C.). Paddle speed and bath temperature were set to 50 rpm and 37° C., respectively. Samples (5 mL) were withdrawn at 5, 10, 15, 30, 45, and 60 minutes and analyzed by UV spectroscopic methods at 360 nm (Varian Cary, Australia). Dissolution experiment was performed in duplicates unless otherwise specified.

Data set [2] in a line: In vivo human study, pharmacokinetics in healthy volunteers (Example 7).
Description: The study consisted of a total of eighteen healthy adult volunteers (male and female). Testing was conducted over three phases, with a minimum fourteen day washout period between each phase of the study. Test formulation A and C were randomly dosed during phases 1 and 2, while test formulation B was dosed entirely during phase 3. […] Each formulation was administered as a single dose, with approximately 240 mL of room temperature water.
Twenty-seven blood samples per subject per phase were collected at various time points over the course of 96 hours following dosing. Pharmacokinetic sampling occurred within 90 minutes prior to dosing (0 hour) and after dose administration at 0.5, 1, 1.5, 2, 2.5, 3, 3.5, 4, 4.5, 5, 5.5, 6, 6.5, 7, 7.5, 8, 8.5, 9, 9.5, 10, 12, 16, 24, 48, 72, and 96 hours. The samples were stored at room temperature for about 1 hour or until being processed for serum. The samples were centrifuged at 3000 RPM for 10 minutes at 4° C. (±10° C.). Serum samples were stored at −20±10° C. until analyzed.
The samples were evaluated using a validated bioanalytical method and according to the Bioanalytical Laboratory's Standard Operating Procedures and FDA guidelines.
Data set [3] can be described thus: In vivo dog study, serum pharmacokinetics by LC/MS/MS (Example 4).
Description: Both formulations were administered orally.
For each formulation 4 or 5 dogs were studied. Prior to administration, the animals were fasted overnight and approximately 2 hours post-dose, the animals had access to regular rations for the remaining portion of the study. The animals were dosed multiple times over the course of the study with at least a two-week recovery period between dosing phases. Each formulation was administered as a single dose, with the intravenous dosages occurring in the cephalic vein.
Blood samples were collected from the cephalic or saphenous veins. The samples were stored at room temperature for about 1 hour or until being processed for serum. The samples were centrifuged at 3200 RPM for 10 minutes at 22-26° C. Serum samples were stored at 4±5° C. until analyzed.
The samples were evaluated using LC/MS/MS.

For the compound `Cc1cnc(NC(=O)C2=C(O)c3ccccc3S(=O)(=O)N2C)s1` [Meloxicam, 4-hydroxy-2-methyl-N-(5-methyl-2-thiazolyl)-2H-1,2-benzothiazine-3-carboxamide-1,1-dioxide], the “meloxicam dissolved in water” value in data set [1] is 12%. The elimination phase entry in data set [2] and in data set [3] was “slow elimination phase” throughout.
